According to patent publication US20250295790A1, “LECTIN-TARGETING CONJUGATES” (Helmholtz-Zentrum für Infektionsforschung GmbH, priority 2021, published 2025):
“And” between values parts separate entries of the source, which are not always exact repeats. Identical values can stand only once.

How the values were obtained:
[1] = test system: P. aeruginosa PA14; assay: Antibiotic susceptibility (MIC assay, broth microdilution); type: cell-based, Pseudomonas aeruginosa PA14
Protocol: Bacterial strains were streaked on LB-agar plates (1% agar) from glycerol stocks and incubated at 37° C. overnight. Colonies were picked from plate and dispersed in fresh MiGler-Hinton broth II (MHB II) to yield an OD600 of 0.08-0.13. This dispersion was diluted 1:100 in fresh MHB II, which was then used for the assay to achieve a final inoculum of 5×10^5 CFU/mL. 50 μL inoculum was mixed with 50 μL of the serial dilution in the corresponding well of the 96-well plate.
The different matrices were prepared under sterile conditions: (i) 5 mL human plasma and 1 mL sterile filtrate from an P. aeruginosa PA14 overnight culture in LB were mixed with 4 mL PBS; (ii) 1 mL sterile filtrate from an P. aeruginosa PA14 overnight culture was diluted in 9 mL PBS; (iii) PBS only and (iv) 5 mL human plasma and 1 mL LB were mixed with 4 mL PBS. 6 L of each compound dilution series was diluted in 115 L matrix (˜-1:20 dilution) in a 96-well format at time point T=−3 h or T=−10 min.
The plates prepared at T=−3 h were sealed with gas-permeable foil and incubated at 37° C. in a humid incubator. The other plates were kept at room temperature. At T=0 h, 50 µL of each well was mixed with 50 μL incoculum (as described above) in double-concentrated MHBII in a sterile 96-well plate.
The plates were sealed with gas-permeable foil and incubated at 37° C. for 18-20 h in a humid incubator. Growth inhibition was assessed by visual inspection and given MIC values are the lowest concentration of antibiotic at which there was no visible growth.

[2] = Microsomal stability assay, mouse S9 liver microsomes; type: in vitro ADME; conditions: for CLmic S9mouse: microsomal clearance, calculated from t1/2; for metabolic stability t1/2 MLM: mouse S9 liver fractions
Protocol: (§1) S9 liver microsomes (mouse and human, Thermo Fisher) were thawed slowly on ice. 20 mg/ml of microsomes, 2 μl of a 100 μM solution of every compound and 183 μl of 100 mM phosphate buffer were incubated 5 min at 37° C. in a water bath. Reactions were initiated using 10 μl of 20 mM NADPH (Roth). Samples were incubated in three replicates at 37° C. under gentle agitation at 150 rpm.
(§2) At 0, 5, 15, 30, and 60 min, reactions were terminated by the addition of 180 μl acetonitrile using a Mantis Formulatrix® dispenser. Samples were vortexed for 5 min using an Eppendorf MixMate® vortex mixer and centrifuged at 2270 ref for 20 min at 4° C. The supernatants were transferred to 96-well Greiner V-bottom plates, sealed and analysed according to the section HPLC-MS/MS analysis. Peak areas of the respective time point of the compounds were normalized to the peak area at time point 0 min. Then half-life was calculated using linear regression (Microsoft Excel®). Clint [μl/min/mg protein] was calculated using the following formula: […]
(§3) Cell samples as well as plasma stability, plasma protein binding and metabolic stability samples were analysed using an Agilent 1290 Infinity II coupled to an AB Sciex 6500plus mass spec-trometer. LC conditions were as follows: column: Agilent Zorbax Eclipse Plus C18, 50×2.1 mm, 1.8 m; temperature: 30° C.; injection volume: 5 l per sample; flow rate: 700 l/min. Solvents: A: water+0.1% formic acid; solvent B: 95% acetonitrile/5% H2O+0.1% formic acid. Gradient for 2, 36 and 37: 99% A from 0 min until 1 min; 99-0% A from 1.0 until 2.2 min, 0% A until 3.2 min. Gradient for naproxene: 99% A from 0 min until 1 min; 99-0% A from 1.0 until 5.5 min, 0% A until 6.0 min. Gradient for […] and […]: 99% A from 0 min until 1.0 min, 99-0% A from 1.0 until 3.5 min, 0% A until 3.7 min. Mass transitions for controls and compounds are depicted in table 5.

[3] = Microsomal stability assay, human S9 liver microsomes; type: in vitro ADME; conditions: for metabolic stability t1/2 HLM: human S9 liver fractions; for CLmic S9human: microsomal clearance, calculated from t1/2
Protocol: as §1, §2, §3

[4] = Plasma protein binding assay (RED), murine plasma; type: in vitro ADME; conditions: mouse blood plasma
Protocol: (§4) Plasma protein binding was assessed using the rapid equilibrium device (RED) system from ThermoFisher. […] Dialysis buffer and plasma samples were added to the respective chambers according the manufacturer's protocol. The RED plate was sealed with a tape and incubated at 37° C. for 2 hours at 800 rpm on an Eppendorf MixMate® vortex-mixer. Then samples were withdrawn from the respective chambers. To 25 μl of each dialysis sample, 25 μl of plasma and to 25 μl of plasma sample, 25 l of dialysis buffer was added. […] Samples were incubated for 30 min on ice. Then samples were centrifuged at 4° C. at 2270 ref for 10 min. Supernatants were transferred to Greiner V-bottom 96-well plates and sealed with a tape. Then samples were subjected to HPLC-MS/MS analysis as described in the section ‘HPLC-MS/MS analysis’. The percentage of bound compound was calculated as follows: […]
(§5) Cell samples as well as plasma stability, plasma protein binding and metabolic stability samples were analysed using an Agilent 1290 Infinity II coupled to an AB Sciex 6500plus mass spec-trometer. LC conditions were as follows: column: Agilent Zorbax Eclipse Plus C18, 50×2.1 mm, 1.8 m; temperature: 30° C.; injection volume: 5 l per sample; flow rate: 700 l/min. Solvents: A: water+0.1% formic acid; solvent B: 95% acetonitrile/5% H2O+0.1% formic acid. […]

[5] = Plasma protein binding assay (RED), human plasma; type: in vitro ADME; conditions: human blood plasma
Protocol: as §4, §5

[6] = test system: A549 cells; assay: Cell accumulation assay; type: cell-based, human; conditions: for intracellular drug levels: 15 min after incubation
Protocol: A549 cells were seed into 96-well-plates as described for the cytotoxicity assay. Cells were cultivated at 37° C. and 5% CO2 until they reached 95% confluency. Cells were treated with 2, 36 or 37 at a final concentration of 10 µg/ml or left untreated. Each condition was assayed in technical dupli-cates with two biological replicates. Cells were treated for 15 min, 30 min and 60 min. After incubation for the respective time point, cells were washed twice with pre-warmed PBS and were then lysed in MeOH and scratched from the surface. Supernatants from medium, wash fluids as well as the cell extracts were subjected to mass spectrometric analysis. For wash fluid and medium samples, calibration and QC samples were prepared using PBS as matrix and spiking the respective compounds into the matrix. For cell extract samples, calibration and QC samples were prepared using MeOH as matrix. For calibration and QC samples compounds were dispensed using a Mantis(R) Formulatrix. […] Supernatants were transferred to a Greiner V-bottom plate, sealed and subjected for HPLC-MS/MS analysis.
as §3

[7] = Matrix 1: PBS, pre-incubation 3 h
[8] = Matrix 1: PBS, pre-incubation <10 min
[9] = Matrix 2: 50% human blood plasma + 10% P. aeruginosa culture supernatant in PBS, pre-incubation 3 h
[10] = Matrix 2: 50% human blood plasma + 10% P. aeruginosa culture supernatant in PBS, pre-incubation <10 min
[11] = Matrix 3: 10% P. aeruginosa culture supernatant in PBS, pre-incubation 3 h
[12] = Matrix 3: 10% P. aeruginosa culture supernatant in PBS, pre-incubation <10 min
[13] = Matrix 4: 50% human blood plasma + 10% LB in PBS, pre-incubation 3 h
[14] = Matrix 4: 50% human blood plasma + 10% LB in PBS, pre-incubation <10 min

| Structure (SMILES) | MIC [1, 7] [µM] | MIC [1, 8] [µM] | MIC [1, 9] [µM] | MIC [1, 10] [µM] | MIC [1, 11] [µM] | MIC [1, 12] [µM] | MIC [1, 13] [µM] | MIC [1, 14] [µM] | CLmic S9mouse [2] [μL/min/mg protein] | metabolic stability t1/2 MLM [2] [h] | metabolic stability t1/2 HLM [3] [h] | CLmic S9human [3] [μL/min/mg protein] | plasma protein binding mouse [4] | plasma protein binding human [5] | intracellular cleavage to compound 2 [6] | intracellular concentration ([6]; 10 μg/ml, after 30 and 60 min) [µg/mL] | intracellular drug levels [6] |
| --- | --- | --- | --- | --- | --- | --- | --- | --- | --- | --- | --- | --- | --- | --- | --- | --- | --- |
| CC(C)C[C@H](NC(=O)CNC(=O)[C@H](C)NC(=O)c1ccc(S[C@@H]2O[C@H](CO)[C@H](O)[C@H](O)[C@H]2O)cc1)C(=O)N[C@@H](C)C(=O)N[C@H]1CCN(c2cc3c(cc2F)c(=O)c(C(=O)O)cn3C2CC2)C1 [Compound 36] | >25 | >25 | 0.1 | 0.195 to 0.39 | 0.195 to 3.13 | 0.78 to 3.13 | 0.78 to 6.25 | ≥25 | 14 | 1.67 | 1.55 | 15 | 74% | 97% and 97.2 ± 4.8% | not the case | 0.013 to 0.016 | very low intracellular drug levels |
| CC(C)CC(NC(=O)CNC(=O)C(C)NC(=O)c1ccc(S(=O)(=O)NCC2OC(C)C(O)C(O)C2O)cc1)C(=O)NC(C)C(=O)NC1CCN(c2cc3c(cc2F)c(=O)c(C(=O)O)cn3C2CC2)C1 (stereo not drawn) [Compound 37] | >25 | >25 | 0.1 to 0.195 | 0.78 to 1.56 | 0.39 to 3.13 | 1.56 to 12.5 | 0.78 to 6.25 | ≥25 | 6.4 | 3.6 | 2.97 | 7.8 | 30% and 30.1 ± 9.2% | 51% and 51.1 ± 13.3% | not the case | – | very low intracellular drug levels |
